This is an account of results in ChEMBL document CHEMBL3826971 (Bioorg Med Chem Lett, 2016).

The series can be described thus: Acute toxicity in ip dosed mouse measured after 72 hrs. It counts as organism-based. The following applies: in vivo.

As usually defined, the LD50 is the dose at which mortality reaches 50%.

`CN(C)C(=O)Oc1cccc([N+](C)(C)C)c1.COS(=O)(=O)[O-]` [NEOSTIGMINE METHYLSULFATE]: the LD50 at 72 h is 0.51 mg/kg.

In the case of `CN(C)C(=O)Oc1ccc[n+](C)c1.[Br-]` [PYRIDOSTIGMINE BROMIDE], the median lethal dose (LD50) at 72 h was determined as 3.3 mg/kg.
